{"source": "patent US11845759B2", "about": "“Opioid compounds and uses thereof” (priority 2018, dated 2023)", "key": {"[1]": {"test": "Hydrolysis in human blood serum at 37° C.", "conditions": "human blood serum (37° C.)"}, "[2]": {"test": "Hydrolysis in simulated intestinal fluid at 37° C.", "conditions": "for 6-lauroyl-Oxy (%): 6-lauroyl-Oxycodone, simulated intestinal fluid with 0.5% Polysorbate 80, 37° C."}, "[3]": {"test": "Hydrolysis in pH buffer/EtOH solutions", "assay_type": "physicochemical", "conditions": "6-lauroyl-Oxycodone"}, "μ-opioid receptor [4]": {"target": "T1, μ-opioid receptor (Homo sapiens (Human), UniProt P35372)", "assay_type": "binding"}, "μ-opioid receptor [5]": {"target": "T1, μ-opioid receptor", "test": "[35S]GTPγS μ-opioid receptor functional assay", "assay_type": "biochemical"}}}
{"compound": "COc1ccc2c3c1OC1C(OC(C)=O)=CCC4[C@@H](C2)N(C)CC[C@]314", "note": "(some centres unmarked) [6-acetyl hydrocodone]", "values": [{"measurement": "hydrolysis in human blood serum (in words)", "setting": "[1]", "result": "hydrolyzed quickly"}, {"measurement": "% hydrolyzed to hydrocodone", "setting": "[1]; 30 minutes", "result": 99, "unit": "%"}, {"measurement": "% hydrolyzed to hydrocodone", "setting": "[1]; five minutes", "result": 70, "unit": "%"}]}
{"compound": "COc1ccc2c3c1OC1C(OC(C)=O)=CC[C@@]4(OC(C)=O)[C@@H](C2)N(C)CC[C@]314", "note": "(some centres unmarked) [6,14-Diacetyl oxycodone, 6,14-bis-acetyl Oxycodone]", "values": [{"measurement": "hydrolysis products (in words)", "setting": "[2]; mixture in simulated intestinal fluid (37° C., pH 6.8, pancreatine)", "result": "hydrolyzes to create additional 6-acetyl oxycodone and 14-acetyl oxycodone"}]}
{"compound": "CCCCCCCCCCCC(=O)OC1=CC[C@@]2(O)[C@H]3Cc4ccc(OC)c5c4[C@@]2(CCN3C)C1O5", "note": "(some centres unmarked) [6-lauroyl oxycodone]", "values": [{"measurement": "6-lauroyl-Oxy (%)", "setting": "[3]; pH 9 buffer (75% EtOH), 0 h", "result": 99, "unit": "%"}, {"measurement": "Oxy (%)", "setting": "[3]; pH 9 buffer (75% EtOH), 0 h", "result": 0, "unit": "%"}, {"measurement": "6-lauroyl-Oxy (%)", "setting": "[3]; pH 9 buffer (75% EtOH), 0.5 h", "result": 98, "unit": "%"}, {"measurement": "Oxy (%)", "setting": "[3]; pH 9 buffer (75% EtOH), 0.5 h", "result": 1, "unit": "%"}, {"measurement": "6-lauroyl-Oxy (%)", "setting": "[3]; pH 9 buffer (75% EtOH), 2 h", "result": 98, "unit": "%"}, {"measurement": "Oxy (%)", "setting": "[3]; pH 9 buffer (75% EtOH), 2 h", "result": 1, "unit": "%"}, {"measurement": "6-lauroyl-Oxy (%)", "setting": "[3]; pH 9 buffer (75% EtOH), 4 h", "result": 98, "unit": "%"}, {"measurement": "Oxy (%)", "setting": "[3]; pH 9 buffer (75% EtOH), 4 h", "result": 1, "unit": "%"}, {"measurement": "6-lauroyl-Oxy (%)", "setting": "[3]; pH 9 buffer (75% EtOH), 8 h", "result": 98, "unit": "%"}, {"measurement": "Oxy (%)", "setting": "[3]; pH 9 buffer (75% EtOH), 8 h", "result": 1, "unit": "%"}, {"measurement": "6-lauroyl-Oxy (%)", "setting": "[3]; pH 11 buffer (75% EtOH), 0 h", "result": 99, "unit": "%"}, {"measurement": "Oxy (%)", "setting": "[3]; pH 11 buffer (75% EtOH), 0 h", "result": 0, "unit": "%"}, {"measurement": "6-lauroyl-Oxy (%)", "setting": "[3]; pH 11 buffer (75% EtOH), 0.5 h", "result": 24.5, "unit": "%"}, {"measurement": "Oxy (%)", "setting": "[3]; pH 11 buffer (75% EtOH), 0.5 h", "result": 75.5, "unit": "%"}, {"measurement": "6-lauroyl-Oxy (%)", "setting": "[3]; pH 11 buffer (75% EtOH), 4 h", "result": 7.2, "unit": "%"}, {"measurement": "Oxy (%)", "setting": "[3]; pH 11 buffer (75% EtOH), 4 h", "result": 92.8, "unit": "%"}, {"measurement": "6-lauroyl-Oxy (%)", "setting": "[3]; pH 11 buffer (75% EtOH), 8 h", "result": 6.2, "unit": "%"}, {"measurement": "Oxy (%)", "setting": "[3]; pH 11 buffer (75% EtOH), 8 h", "result": 93.8, "unit": "%"}, {"measurement": "Ki", "setting": "μ-opioid receptor [4]", "result": 96, "unit": "nM"}, {"measurement": "Ki compared with that of oxycodone (in words)", "setting": "μ-opioid receptor [4]", "result": "comparable"}, {"measurement": "EC50", "setting": "μ-opioid receptor [5]", "result": 990, "unit": "nM"}, {"measurement": "% Response Agonist", "setting": "μ-opioid receptor [5]; Conc. 3 μM, criteria ≥± 50%", "result": 52, "unit": "%"}, {"measurement": "6-lauroyl-Oxy (%)", "setting": "[2]; 0 h", "result": 99, "unit": "%"}, {"measurement": "6-lauroyl-Oxy (%)", "setting": "[2]; 0.17 h", "result": 56.9, "unit": "%"}, {"measurement": "6-lauroyl-Oxy (%)", "setting": "[2]; 0.5 h", "result": 54.8, "unit": "%"}, {"measurement": "6-lauroyl-Oxy (%)", "setting": "[2]; 1 h", "result": 52.6, "unit": "%"}, {"measurement": "6-lauroyl-Oxy (%)", "setting": "[2]; 2 h", "result": 50.8, "unit": "%"}, {"measurement": "6-lauroyl-Oxy (%)", "setting": "[2]; with additional fresh intestinal fluid 30 min", "result": 18.6, "unit": "%"}]}
{"compound": "CCCCCCCCCCCC(=O)O[C@@]12CCC(=O)C3Oc4c(OC)ccc5c4[C@@]31CCN(C)[C@@H]2C5", "note": "(some centres unmarked) [14-lauroyl oxycodone]", "values": [{"measurement": "% Response Agonist", "setting": "μ-opioid receptor [5]; Conc. 100 μM, criteria ≥± 50%", "result": 56, "unit": "%"}, {"measurement": "% Response Antagonist", "setting": "μ-opioid receptor [5]; Conc. 100 μM, criteria ≥± 50%", "result": 56, "unit": "%"}, {"measurement": "functional profile at μ-opioid receptor (in words)", "setting": "μ-opioid receptor [5]; conclusion from Table 23", "result": "partial agonist and a partial antagonist"}]}
